Measurements published in patent US20250213510A1, “Aqueous Composition” (TSUBOTA LABORATORY, Inc., priority 2022, published 2025).

Key:
[1] = Stability of sodium 4-phenylbutyrate in multi-dose type containers (liquid chromatography); type: physicochemical; settings: PE, PP, PET; 60° C., 1 week (Table 1-2)
Description: Each aqueous composition (formulations 1-0 to 1-4) shown in Table 1-1 was prepared through a usual method to fill 5-mL volume multi-dose type containers made of polyethylene (PE), polypropylene (PP), and polyethylene terephthalate (PET) by 5 mL each.
Liquid chromatography was used to quantify sodium 4-phenylbutyrate. 10 μL of 0.05 w/v % sodium 4-phenylbutyrate solution was used as a standard solution, and 10 μL of a formulation diluted 10 times with a mobile phase was used as a sample solution. The standard solution and the sample solution were each placed on a reverse-phase column (YMC-Pack ODS-A (I.D. 4.6 mm×150 mm, 5 μm) manufactured by YMC CO., LTD.) maintained at 30° C., and eluted with a 0.2% formic acid solution-acetonitrile mixture as a mobile phase. Detection was performed with an ultraviolet absorptiometer (measurement wavelength: 260 nm). Thereafter, the peak area of sodium 4-phenylbutyrate was measured for the standard solution and the sample solution, and the concentration of sodium 4-phenylbutyrate was determined for each formulation immediately after preparation and after storage at 60° C. for 1 week using Equation 1 below.

[2] = Stability of sodium 4-phenylbutyrate in unit-dose type containers (liquid chromatography); type: physicochemical; settings: PE, COC/PE; 40° C., 1 month (Table 1-5)
Description: An aqueous composition (formulation 2-1) shown in Table 1-4 was prepared through a usual method to fill a 0.5-mL volume polyethylene (PE) unit-dose type container and a unit-dose type resin container made of a mixture of a cyclic olefin copolymer (COC) and polyethylene (PE) by 0.5 mL each.
Liquid chromatography was used to quantify sodium 4-phenylbutyrate. 20 μL of 0.02 w/v % sodium 4-phenylbutyrate solution was used as a standard solution, and 20 μL of a formulation 2-1 diluted 10 times with a mobile phase was used as a sample solution. The standard solution and the sample solution were each placed on a reverse-phase column (YMC-Pack ODS-A (I.D. 4.6 mm×150 mm, 5 μm) manufactured by YMC CO., LTD.) maintained at 30° C., and eluted with a 0.2% formic acid solution-acetonitrile mixture as a mobile phase. Detection was performed with an ultraviolet absorptiometer (measurement wavelength: 260 nm). Thereafter, the peak area of sodium 4-phenylbutyrate was measured for the standard solution and the sample solution, and the concentration of sodium 4-phenylbutyrate was determined for the formulation 2-1 immediately after preparation and after storage at 40° C. for 1 month using Equation 3 below.

In the case of `O=C([O-])CCCc1ccccc1.[Na+]` [sodium 4-phenylbutyrate, Sodium 4-phenylbutyrate], the “Stability of sodium 4-phenylbutyrate itself among the container resins” value [1] is reported as “no difference in stability” and the “Stability of sodium 4-phenylbutyrate itself among the container resins” value [2] is reported as “no difference in stability”.
